Columns and labels:
[1] = Cytotoxicity against human KB-3-1 cells by resazurin reduction assay; type: functional, cell-based
[2] = Cytotoxicity against human KBV1 cells by resazurin reduction assay; type: functional, cell-based; conditions: KB-V1
[3] = Binding affinity to integrin in human WM-115 cells after 30 mins by immobilized vitronectin-based competitive cell adhesion assay

SMILES	IC50 [1]	IC50 [2]	IC50 [3]
C=CCOC(=O)C[C@@H]1CNC(=O)[C@@H](Cc2ccc(OC)c(Cl)c2)NC(=O)/C=C/C[C@@H]([C@H](C)[C@H]2O[C@@H]2c2ccccc2)OC(=O)[C@H](CC(C)C)OC1=O	0.0961 nM	2.7 nM	–
C=CCOC(=O)C[C@H]1CNC(=O)[C@@H](Cc2ccc(OC)c(Cl)c2)NC(=O)/C=C/C[C@@H]([C@H](C)[C@H]2O[C@@H]2c2ccccc2)OC(=O)[C@H](CC(C)C)OC1=O	0.0083 nM	6 nM	–
C=CCOC(=O)CCC[C@@H]1CNC(=O)[C@@H](Cc2ccc(OC)c(Cl)c2)NC(=O)/C=C/C[C@@H]([C@H](C)[C@H]2O[C@@H]2c2ccccc2)OC(=O)[C@H](CC(C)C)OC1=O	0.433 nM	45.2 nM	–
C=CCOCCC[C@@H]1CNC(=O)[C@@H](Cc2ccc(OC)c(Cl)c2)NC(=O)/C=C/C[C@@H]([C@H](C)[C@H]2O[C@@H]2c2ccccc2)OC(=O)[C@H](CC(C)C)OC1=O	0.149 nM	26.6 nM	–
C=CCOCCC[C@H]1CNC(=O)[C@@H](Cc2ccc(OC)c(Cl)c2)NC(=O)/C=C/C[C@@H]([C@H](C)[C@H]2O[C@@H]2c2ccccc2)OC(=O)[C@H](CC(C)C)OC1=O	0.0527 nM	38 nM	–
COc1ccc(C[C@H]2NC(=O)/C=C/C[C@@H]([C@H](C)[C@H]3O[C@@H]3c3ccccc3)OC(=O)[C@H](CC(C)C)OC(=O)[C@H](CCN=[N+]=[N-])CNC2=O)cc1Cl	0.0216 nM	2.1 nM	–
COc1ccc(C[C@H]2NC(=O)/C=C/C[C@@H]([C@H](C)[C@H]3O[C@@H]3c3ccccc3)OC(=O)[C@H](CC(C)C)OC(=O)[C@@H](CCN=[N+]=[N-])CNC2=O)cc1Cl	0.0546 nM	14.1 nM	–
COc1ccc(C[C@H]2NC(=O)/C=C/C[C@@H]([C@H](C)[C@H]3O[C@@H]3c3ccccc3)OC(=O)[C@H](CC(C)C)OC(=O)[C@H](CCCN=[N+]=[N-])CNC2=O)cc1Cl	0.112 nM	18.4 nM	–
COc1ccc(C[C@H]2NC(=O)/C=C/C[C@@H]([C@H](C)[C@H]3O[C@@H]3c3ccccc3)OC(=O)[C@H](CC(C)C)OC(=O)[C@@H](CCCN=[N+]=[N-])CNC2=O)cc1Cl	11.5 nM	114 nM	–
COc1ccc(C[C@H]2NC(=O)/C=C/C[C@@H]([C@H](C)[C@H]3O[C@@H]3c3ccccc3)OC(=O)[C@H](CC(C)C)OC(=O)[C@H](CCCCN=[N+]=[N-])CNC2=O)cc1Cl	0.249 nM	23.5 nM	–
COc1ccc(C[C@H]2NC(=O)/C=C/C[C@@H]([C@H](C)[C@H]3O[C@@H]3c3ccccc3)OC(=O)[C@H](CC(C)C)OC(=O)[C@H](CCCn3cc(C(C)(C)O)nn3)CNC2=O)cc1Cl	0.101 nM	411 nM	–
COc1ccc(C[C@H]2NC(=O)/C=C/C[C@@H]([C@H](C)[C@H]3O[C@@H]3c3ccccc3)OC(=O)[C@H](CC(C)C)OC(=O)[C@@H](CCCn3cc(C(C)(C)O)nn3)CNC2=O)cc1Cl	0.312 nM	3020 nM	–
COc1ccc(C[C@H]2NC(=O)/C=C/C[C@@H]([C@H](C)[C@H]3O[C@@H]3c3ccccc3)OC(=O)[C@H](CC(C)C)OC(=O)[C@@H](CCCn3cc(C[C@@H]4NC(=O)[C@@H](Cc5ccccc5)NC(=O)[C@H](CC(=O)O)NC(=O)CNC(=O)[C@H](CCCNC(=N)N)NC4=O)nn3)CNC2=O)cc1Cl	55.8 nM	1800 nM	–
COc1ccc(C[C@H]2NC(=O)/C=C/C[C@@H]([C@H](C)[C@H]3O[C@@H]3c3ccccc3)OC(=O)[C@H](CC(C)C)OC(=O)C(C)(C)CNC2=O)cc1Cl [CRYPTOPHYCIN 52]	0.0155 nM	0.26 nM	–
CC(C)[C@@H]1NC(=O)[C@@H](Cc2ccccc2)NC(=O)[C@H](CC(=O)O)NC(=O)CNC(=O)[C@H](CCCN=C(N)N)NC1=O [CYCLORGDFV]	–	–	500 nM

From ChEMBL document CHEMBL2321811, “Conjugates of modified cryptophycins and RGD-peptides enter target cells by endocytosis” (J Med Chem, 2013)
